The record followed here is US9783546B2, “Compounds” (GlaxoSmithKline Intellectual Property Development Limited, priority 2014, dated 2017).

For test [1], the system named is experimental autoimmune encephalomyelitis (EAE) rats. In words: Rat experimental autoimmune encephalomyelitis (EAE) model, preventive treatment. The following applies: rats immunized with MBP. It is filed as in vivo. On the procedure: A further study was carried out to study the impact of Lp-PLA2 inhibitors on modulating M1/M2 imbalance. In this study, rats were induced to develop experimental autoimmune encephalomyelitis (EAE) by immunization with myelin basic protein (MBP) antigen and treated with a known Lp-PLA2 inhibitor: 5-(9-Methoxy-4-oxo-6,7-dihydro-4H-pyrimido[6,1-a]isoquinolin-2-yl)oxy)-2-(3-(trifluoromethyl)phenoxy)benzonitrile (See PCT application no. PCT/CN2011/001597). In this preventive treatment model, the compound was administered at day 0 (day of immunization) and continued to administer until day 22. The study lasted for 25 days. Rats were subsequently monitored for symptoms of EAE. Rats were immunized with MBP to develop EAE and symptoms were monitored daily. Plasma Lp-PLA2 activity, OxLDL, and LysoPC concentration were determined at different time points through the course of EAE.

In test [2] the test system is proinflammatory (M1) and anti-inflammatory (M2) markers in macrophages. Description: Ex vivo analysis of M1 and M2 markers in macrophages of EAE rats by realtime PCR. Set-up: species or system rat. The settings on record: splenic macrophages at day 13 post MBP-immunization and CNS infiltrating macrophages. As to the method: Ex vivo analysis of proinflammatory (M1) and anti-inflammatory (M2) markers in control and compound treated EAE rats. Splenic macrophages were harvested at day 13 post MBP-immunization and assayed for expression of a variety of markers by realtime PCR. CNS infiltrating cells were harvested and macrophages were analyzed for expression of M1 and M2 markers by realtime PCR.

In test [3] the target is T1, Lp-PLA2 in human plasma (Homo sapiens, UniProt Q13093).
T1 construct: from tissue; host or cells: pooled human plasma
T1 sequence (Q13093 22-441): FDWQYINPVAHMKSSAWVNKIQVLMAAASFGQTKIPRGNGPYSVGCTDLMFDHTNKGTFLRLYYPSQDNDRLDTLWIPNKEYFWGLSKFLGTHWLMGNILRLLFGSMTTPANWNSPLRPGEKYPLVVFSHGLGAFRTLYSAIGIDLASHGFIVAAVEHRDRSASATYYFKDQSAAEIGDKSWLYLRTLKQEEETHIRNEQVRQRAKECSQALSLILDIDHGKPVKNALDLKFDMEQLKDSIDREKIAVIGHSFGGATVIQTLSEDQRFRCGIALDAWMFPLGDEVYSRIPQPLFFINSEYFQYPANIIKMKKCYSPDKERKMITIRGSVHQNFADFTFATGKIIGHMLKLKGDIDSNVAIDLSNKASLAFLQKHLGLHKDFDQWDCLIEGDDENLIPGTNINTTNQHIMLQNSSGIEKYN
In words: Lp-PLA2 Human Plasma assay, Thio-PAF assay. The following applies: pooled human plasma, 2-thio-PAF substrate; read-out: pIC50 value in the Lp-PLA2 human plasma assays (converted). It is filed as biochemical. The source says:
(3) Lipoprotein-associated phospholipase A2 (Lp-PLA2) Human Plasma assay-Thio-PAF assay
The human plasma assay utilizes a thioester analog of PAF (phosphatidylcholine), where hydrolysis yields to the formation of a phospholipid containing a free thiol group. The amount of thiol is quantitated continuously by reacting with CPM (7-diethylamino-3-(4′-maleimidylphenyl)-4-methylcoumarin), a maleimide which increases in fluoresence after Michael addition of thiols. This assay may detect the activity of Lp-PLA2 in human plasma, as determined by specific inhibition by Lp-PLA2 inhibitors.
The thio-PAF assay was run as a quenched 15 μL assay. Compounds source plate was prepared by making 1:3 (by volume) serial dilution of the compounds into pure DMSO on 384-well microplate. […] of compounds on compound source plate were transferred to 384 well Greiner 784076 (black) low-volume plates by ECHO liquid dispenser. 8 μL pooled human plasma, which was previously aliquoted and frozen, was added. Plates were centrifuged for 10 sec at 500 rpm. […] Plates were read at ex: 380/em: 485 using Envision microplate reader. […]

The target in test [4] is T2, recombinant human Lp-PLA2 (Homo sapiens, UniProt Q13093).
T2 sequence (Q13093 22-441): T1 sequence (Q13093 22-441)
Description: Recombinant human Lp-PLA2 assay (rhLp-PLA2), PED6 assay. It is filed as biochemical. The settings on record: PED6 substrate, 30 minutes preincubation; read-out: rhLp-PLA2 (pIC50) (converted). The source says: (1) Recombinant human Lp-PLA2 assays (rhLp-PLA2)-PED6 assay
N-((6-(2,4-dinitrophenyl)amino)-hexanoyl)-2-(4,4-difluoro-5,7-dimethyl-4-bora-3a,4a-diaza-s-indacene-3-pentanoyl)-1-hexadecanoyl-sn-glycero-3-phosphoethanolamine, triethylammonium salt (PED6) is a commercially available fluorescently-labeled phospholipid, which is commercially available from Invitrogene and Molecular Probes. There is a quenching para-nitro phenyl (PNP) group in the sn3 position and a Bodipy fluorescein (FL) group in the sn2 position. Upon cleavage with Lp-PLA2, the Bodipy FL group is liberated and then may result in an increase in fluorescence. Inhibitors of Lp-PLA2 therefore prevent this cleavage and no fluorescent increase is observed.
The PED6 assay was run as an unquenched 10 μL assay. The source plate containing the compounds to be tested was prepared by making 1:3 (by volume) serial dilution of the compounds within DMSO on 384-well microplate. Then, 0.01 μL of the compounds on compound source plate were transferred into 384 well Greiner 784076 (black) plates using ECHO liquid dispenser. […] The plates were read for fluorescence intensity at ex: 480/em: 540 using ViewLux microplate imager for Envision spectrofluroimeters. pIC50 data, curve and QC analysis was conducted by using XL fit module in Excel. […]

Where [5] appears, read: compound administered day 0 until day 22, plasma.

Structures are written as SMILES.

With `COc1ccc2c(c1)CCn1c-2cc(Oc2ccc(Oc3cccc(C(F)(F)F)c3)c(C#N)c2)nc1=O` [5-(9-Methoxy-4-oxo-6,7-dihydro-4H-pyrimido[6,1-a]isoquinolin-2-yl)oxy)-2-(3-(trifluoromethyl)phenoxy)benzonitrile], in test [1] (compound administered day 0 until day 22), the “clinical disease (EAE)” value is recorded as “reduction in clinical disease”. Further, in test [1] (setting [5]), the “Lp-PLA2 activity in rat EAE plasma” value is recorded as “decreased Lp-PLA2 activity” and the “LysoPC levels in rat EAE plasma” value was “decreased”. In addition, in test [2], the M1 markers expression entry is reported as “decrease in M1 markers” and the M2 markers expression entry is given as “increase in M2 markers”.

Take `O=c1nc(OCc2cc(F)c(Oc3ccnc(C(F)(F)F)c3)c(F)c2)cc2n1C[C@H]1CCCN21` [Example 1, (R)-3-((3,5-difluoro-4-((2-(trifluoromethyl)pyridin-4-yl)oxy)benzyl)oxy)-7,8,8a, 9-tetra hydropyrrolo[1′,2′;3,4]imidazo[1,2-c]pyrimidin-1(6H)-one]: the IC50 in test [3] was 7.94 nM; in test [4], 0.158 nM.

Take `O=c1nc(OCc2cc(F)c(Oc3ccnc(C(F)(F)F)c3)c(F)c2)cc2n1C[C@@H]1CCCN21` [Example 2, (S)-3-((3,5-difluoro-4-((2-(trifluoromethyl)pyridin-4-yl)oxy)benzyl)oxy)-7,8,8a, 9-tetra hydropyrrolo[1′,2′:3,4]imidazo[1,2-c]pyrimidin-1(6H)-one]: the IC50 in test [3] is 20 nM; in test [4] it was 0.316 nM.
